Tests used:
Dipeptidyl peptidase 9 = Dipeptidyl peptidase 9 (Homo sapiens, UniProt Q86TI2); test: Inhibition of DPP9
Dipeptidyl peptidase 8 = Dipeptidyl peptidase 8 (Homo sapiens, UniProt Q6V1X1); test: Inhibition of DPP8
Dipeptidyl peptidase 2 = Dipeptidyl peptidase 2 (Homo sapiens, UniProt Q9UHL4); test: Inhibition of QPP
Dipeptidyl peptidase 4 = Dipeptidyl peptidase 4 (Homo sapiens, UniProt P27487); test: Inhibition of DPP4
[1] = Inhibition of rabbit calcium channel L type; design: species or system Oryctolagus cuniculus
Cytochrome P450 2D6 = Cytochrome P450 2D6 (Homo sapiens, UniProt P10635); test: Inhibition of Cyp2D6; assay type: ADME
Chain of Cytochrome P450 2D6 (P10635 whole entry): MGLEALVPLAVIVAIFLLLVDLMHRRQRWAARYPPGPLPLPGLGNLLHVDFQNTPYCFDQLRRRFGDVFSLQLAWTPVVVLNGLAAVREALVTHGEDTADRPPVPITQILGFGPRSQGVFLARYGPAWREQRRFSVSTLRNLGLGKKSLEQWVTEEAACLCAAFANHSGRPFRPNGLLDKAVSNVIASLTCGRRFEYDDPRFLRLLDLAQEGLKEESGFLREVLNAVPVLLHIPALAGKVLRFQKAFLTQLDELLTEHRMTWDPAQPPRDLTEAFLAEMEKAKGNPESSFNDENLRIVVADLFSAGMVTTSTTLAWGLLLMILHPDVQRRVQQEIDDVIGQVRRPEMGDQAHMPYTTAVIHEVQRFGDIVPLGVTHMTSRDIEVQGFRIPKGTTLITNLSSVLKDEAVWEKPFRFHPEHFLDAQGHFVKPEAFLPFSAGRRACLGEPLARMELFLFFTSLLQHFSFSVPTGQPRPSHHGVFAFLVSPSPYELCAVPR

[2] = Plasma clearance in rat at 1 mg/kg iv or 2 mg/kg po; assay type: ADME, organism-based
[3] = Half life in rat at 1 mg/kg iv or 2 mg/kg po; assay type: ADME, organism-based; settings: in vivo
[4] = Bioavailability iin rat at 1 mg/kg iv or 2 mg/kg po; assay type: ADME, organism-based; settings: in vivo
[5] = molecular target: Voltage-gated inwardly rectifying potassium channel KCNH2 (Homo sapiens, UniProt Q12809); test: Inhibition of human ERG potassium channel
Chain of Voltage-gated inwardly rectifying potassium channel KCNH2 (Q12809 whole entry): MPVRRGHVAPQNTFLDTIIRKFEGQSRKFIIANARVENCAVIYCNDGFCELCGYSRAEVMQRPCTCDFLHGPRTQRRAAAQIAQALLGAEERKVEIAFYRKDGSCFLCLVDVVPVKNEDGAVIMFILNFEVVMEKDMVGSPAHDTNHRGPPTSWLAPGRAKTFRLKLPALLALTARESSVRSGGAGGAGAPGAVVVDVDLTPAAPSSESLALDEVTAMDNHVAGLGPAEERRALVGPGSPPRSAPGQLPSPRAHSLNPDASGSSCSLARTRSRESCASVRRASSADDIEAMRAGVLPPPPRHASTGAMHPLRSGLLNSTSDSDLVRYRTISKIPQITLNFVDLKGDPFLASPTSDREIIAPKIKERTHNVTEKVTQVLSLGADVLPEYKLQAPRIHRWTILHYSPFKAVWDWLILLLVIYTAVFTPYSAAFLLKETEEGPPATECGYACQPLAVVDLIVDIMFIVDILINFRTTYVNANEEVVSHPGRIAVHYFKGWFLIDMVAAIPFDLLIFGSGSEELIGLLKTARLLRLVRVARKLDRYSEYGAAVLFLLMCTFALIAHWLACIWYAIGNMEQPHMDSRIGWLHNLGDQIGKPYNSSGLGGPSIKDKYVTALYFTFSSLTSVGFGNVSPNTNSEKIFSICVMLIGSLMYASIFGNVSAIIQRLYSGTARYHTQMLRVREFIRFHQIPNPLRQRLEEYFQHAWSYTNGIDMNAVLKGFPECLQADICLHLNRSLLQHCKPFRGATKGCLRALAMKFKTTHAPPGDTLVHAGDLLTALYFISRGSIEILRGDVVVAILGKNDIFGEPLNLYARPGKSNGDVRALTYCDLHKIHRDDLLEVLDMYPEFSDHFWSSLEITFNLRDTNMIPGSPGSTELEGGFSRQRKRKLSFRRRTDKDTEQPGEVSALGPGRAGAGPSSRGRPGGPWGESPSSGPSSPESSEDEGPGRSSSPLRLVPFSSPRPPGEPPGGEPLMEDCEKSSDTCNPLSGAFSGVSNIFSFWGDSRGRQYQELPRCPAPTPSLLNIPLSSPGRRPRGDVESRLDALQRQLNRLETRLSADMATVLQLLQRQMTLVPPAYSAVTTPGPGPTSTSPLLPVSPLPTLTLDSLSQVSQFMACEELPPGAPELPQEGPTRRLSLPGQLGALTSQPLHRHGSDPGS

Chain of Dipeptidyl peptidase 9 (Q86TI2 whole entry): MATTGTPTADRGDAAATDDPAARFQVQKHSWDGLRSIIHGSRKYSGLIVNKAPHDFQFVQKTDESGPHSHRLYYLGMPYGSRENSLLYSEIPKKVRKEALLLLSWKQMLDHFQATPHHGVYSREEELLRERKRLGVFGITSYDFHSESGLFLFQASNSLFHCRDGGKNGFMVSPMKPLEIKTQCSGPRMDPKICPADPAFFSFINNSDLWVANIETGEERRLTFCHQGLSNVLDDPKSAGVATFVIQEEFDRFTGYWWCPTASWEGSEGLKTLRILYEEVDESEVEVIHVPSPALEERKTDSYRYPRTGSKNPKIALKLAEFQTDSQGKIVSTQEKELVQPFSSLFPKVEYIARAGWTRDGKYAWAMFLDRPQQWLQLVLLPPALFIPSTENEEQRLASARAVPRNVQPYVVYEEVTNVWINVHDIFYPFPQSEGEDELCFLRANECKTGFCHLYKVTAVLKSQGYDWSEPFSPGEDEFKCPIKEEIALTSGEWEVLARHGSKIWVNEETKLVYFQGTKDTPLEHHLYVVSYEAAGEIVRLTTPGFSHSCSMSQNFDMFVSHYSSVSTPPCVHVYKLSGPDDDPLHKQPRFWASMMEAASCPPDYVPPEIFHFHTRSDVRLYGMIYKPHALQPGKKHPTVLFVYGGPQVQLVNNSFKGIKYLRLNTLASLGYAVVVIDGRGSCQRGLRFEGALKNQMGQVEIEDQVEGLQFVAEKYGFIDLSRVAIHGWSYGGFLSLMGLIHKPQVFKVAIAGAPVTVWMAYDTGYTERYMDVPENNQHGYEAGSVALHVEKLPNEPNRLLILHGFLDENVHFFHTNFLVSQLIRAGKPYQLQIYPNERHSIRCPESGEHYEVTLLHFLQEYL
Chain of Dipeptidyl peptidase 4 (P27487 whole entry): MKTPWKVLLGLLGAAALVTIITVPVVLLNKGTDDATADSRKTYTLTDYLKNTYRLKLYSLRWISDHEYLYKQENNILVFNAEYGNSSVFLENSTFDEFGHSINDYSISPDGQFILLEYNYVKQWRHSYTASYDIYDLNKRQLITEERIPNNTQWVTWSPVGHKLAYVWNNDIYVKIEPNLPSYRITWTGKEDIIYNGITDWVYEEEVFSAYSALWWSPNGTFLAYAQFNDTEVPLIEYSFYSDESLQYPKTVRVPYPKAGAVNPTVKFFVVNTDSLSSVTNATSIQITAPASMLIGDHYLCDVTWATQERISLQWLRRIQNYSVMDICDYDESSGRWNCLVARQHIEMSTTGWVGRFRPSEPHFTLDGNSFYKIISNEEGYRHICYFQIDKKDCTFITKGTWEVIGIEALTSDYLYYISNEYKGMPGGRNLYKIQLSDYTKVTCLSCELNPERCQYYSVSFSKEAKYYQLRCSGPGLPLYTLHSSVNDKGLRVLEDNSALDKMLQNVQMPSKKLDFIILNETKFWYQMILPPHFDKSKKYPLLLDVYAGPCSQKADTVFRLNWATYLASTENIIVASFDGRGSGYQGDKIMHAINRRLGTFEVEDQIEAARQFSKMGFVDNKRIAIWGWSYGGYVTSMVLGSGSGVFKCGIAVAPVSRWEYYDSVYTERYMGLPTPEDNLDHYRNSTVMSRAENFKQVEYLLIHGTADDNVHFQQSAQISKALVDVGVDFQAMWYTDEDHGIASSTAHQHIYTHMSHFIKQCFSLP
Chain of Dipeptidyl peptidase 8 (Q6V1X1 whole entry): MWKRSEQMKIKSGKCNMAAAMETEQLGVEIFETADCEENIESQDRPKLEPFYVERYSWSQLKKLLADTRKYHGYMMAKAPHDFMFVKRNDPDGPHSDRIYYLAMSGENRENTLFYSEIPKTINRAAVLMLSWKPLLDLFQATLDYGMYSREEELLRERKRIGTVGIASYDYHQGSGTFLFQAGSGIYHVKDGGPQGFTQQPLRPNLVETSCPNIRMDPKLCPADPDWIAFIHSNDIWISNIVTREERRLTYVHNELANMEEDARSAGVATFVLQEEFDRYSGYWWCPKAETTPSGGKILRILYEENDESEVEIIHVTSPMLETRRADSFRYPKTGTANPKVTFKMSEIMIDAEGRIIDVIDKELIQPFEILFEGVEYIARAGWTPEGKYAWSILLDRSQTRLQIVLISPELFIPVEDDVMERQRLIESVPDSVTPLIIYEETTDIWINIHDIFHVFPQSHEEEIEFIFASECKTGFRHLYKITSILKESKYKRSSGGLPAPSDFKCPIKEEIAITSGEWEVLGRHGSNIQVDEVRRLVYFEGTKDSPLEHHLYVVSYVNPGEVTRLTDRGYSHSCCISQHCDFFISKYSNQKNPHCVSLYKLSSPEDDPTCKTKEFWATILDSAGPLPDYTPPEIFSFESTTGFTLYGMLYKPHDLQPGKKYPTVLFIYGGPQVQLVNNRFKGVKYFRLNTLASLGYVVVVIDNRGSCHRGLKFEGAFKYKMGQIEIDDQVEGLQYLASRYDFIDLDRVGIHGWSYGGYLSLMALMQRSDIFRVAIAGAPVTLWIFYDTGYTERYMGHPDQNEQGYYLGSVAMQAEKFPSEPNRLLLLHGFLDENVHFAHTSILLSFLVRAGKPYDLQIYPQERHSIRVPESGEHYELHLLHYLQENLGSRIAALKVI

SMILES | IC50 (Dipeptidyl peptidase 9) [µM] | IC50 (Dipeptidyl peptidase 8) [µM] | IC50 (Dipeptidyl peptidase 2) [µM] | IC50 (Dipeptidyl peptidase 4) [µM] | IC50 [1] [µM] | IC50 (Cytochrome P450 2D6) [µM] | clearance [2] [mL/min/kg] | half-life [3] [h] | bioavailability [4] [%] | IC50 [5] [µM]
N[C@H]1CN(c2ccc3nnc(C(F)(F)F)n3n2)CC[C@@H]1c1cc(F)c(F)cc1F | 90 | > 100 | 96 | 0.009 | – | – | – | – | – | –
N[C@H]1CN(c2ccc3nnc(-c4ccc(F)cc4)n3n2)CC[C@@H]1c1cc(F)c(F)cc1F | – | – | 15 | – | – | – | – | – | – | –
N[C@H]1CN(c2ccccn2)CC[C@@H]1c1cc(F)c(F)cc1F | 38 | 34 | 50 | 0.058 | – | – | – | – | – | –
N[C@H]1CN(c2cccnc2)CC[C@@H]1c1cc(F)c(F)cc1F | 36 | 54 | 82 | 0.144 | – | – | – | – | – | –
N[C@H]1CN(c2cccc(C(F)(F)F)n2)CC[C@@H]1c1cc(F)c(F)cc1F | 21 | > 100 | 5.3 | 0.111 | – | – | – | – | – | –
N[C@H]1CN(c2ncccc2C(F)(F)F)CC[C@@H]1c1cc(F)c(F)cc1F | > 100 | > 100 | – | – | – | – | – | – | – | –
N#Cc1ccc(N2CC[C@H](c3cc(F)c(F)cc3F)[C@@H](N)C2)nc1 | 9.6 | 5.8 | 40 | 0.014 | – | – | – | – | – | –
N[C@H]1CN(c2ccncn2)CC[C@@H]1c1cc(F)c(F)cc1F | 67 | 60 | > 100 | 0.037 | 26.9 | – | – | – | – | –
N[C@H]1CN(c2cnccn2)CC[C@@H]1c1cc(F)c(F)cc1F | 40 | 76 | 33 | 0.082 | – | – | – | – | – | –
N[C@H]1CN(c2cccnn2)CC[C@@H]1c1cc(F)c(F)cc1F | 44 | 40 | > 100 | 0.063 | – | – | – | – | – | –
N[C@H]1CN(c2nccc3ccccc23)CC[C@@H]1c1cc(F)c(F)cc1F | > 100 | > 100 | 32 | 3.7 | – | – | – | – | – | –
N[C@H]1CN(c2ccc3nccnc3n2)CC[C@@H]1c1cc(F)c(F)cc1F | 50 | 25 | 35 | 0.007 | – | – | – | – | – | –
N[C@H]1CN(c2cnc3cccnc3n2)CC[C@@H]1c1cc(F)c(F)cc1F | > 100 | 66 | 58 | 0.13 | – | – | – | – | – | –
N[C@H]1CN(c2cnc3cncnc3n2)CC[C@@H]1c1cc(F)c(F)cc1F | – | – | 87 | – | – | – | – | – | – | –
N[C@H]1CN(c2cnc3nccnc3n2)CC[C@@H]1c1cc(F)c(F)cc1F.O=C(O)C(F)(F)F | > 100 | 54 | 93 | 0.013 | 4.1 | 11.6 | 62 | 1.4 | 45 | –
N[C@H]1CN(c2ccc3nc(C(F)(F)F)nn3n2)CC[C@@H]1c1cc(F)c(F)cc1F | > 100 | > 100 | > 100 | 0.005 | 1 | 0.1 | – | – | – | 8.1
N[C@H]1CN(c2ccn3cnnc3n2)CC[C@@H]1c1cc(F)c(F)cc1F.O=C(O)C(F)(F)F | 43 | 30 | > 100 | 0.026 | – | 20.6 | 54 | 1.5 | 19 | –

SMILES | IC50 (Dipeptidyl peptidase 9) [µM] | IC50 (Dipeptidyl peptidase 8) [µM] | IC50 (Dipeptidyl peptidase 2) [µM] | IC50 (Dipeptidyl peptidase 4) [µM] | IC50 [1] [µM] | IC50 (Cytochrome P450 2D6) [µM] | clearance [2] [mL/min/kg] | half-life [3] [h] | bioavailability [4] [%] | IC50 [5] [µM]
N[C@H]1CN(c2ccc3ncnc(C4CC4)c3n2)CC[C@@H]1c1cc(F)c(F)cc1F | 32 | 28 | 9.9 | 0.008 | – | – | – | – | – | –
Cc1nc2ccc(N3CC[C@H](c4cc(F)c(F)cc4F)[C@@H](N)C3)nc2c(=O)[nH]1 | > 100 | 80 | 46 | 0.007 | – | – | – | – | – | –
N[C@H]1CN(c2ccc3nc(=O)ccn3n2)CC[C@@H]1c1cc(F)c(F)cc1F.O=C(O)C(F)(F)F | 19 | > 100 | > 100 | 0.0012 | 84.6 | 55.4 | 35 | 1.6 | 12 | 100
Cc1cc(=O)n2nc(N3CC[C@H](c4cc(F)c(F)cc4F)[C@@H](N)C3)ccc2n1.O=C(O)C(F)(F)F | > 100 | > 100 | > 100 | 0.008 | 18.5 | 16.2 | 18 | 1.4 | 74 | 33.2
N[C@H]1CN(c2ccc3nncn3n2)CC[C@@H]1c1cc(F)c(F)cc1F | > 100 | > 100 | > 100 | 0.031 | – | – | – | – | – | –
Cc1nnc2ccc(N3CC[C@H](c4cc(F)c(F)cc4F)[C@@H](N)C3)nn12.O=C(O)C(F)(F)F | > 100 | > 100 | 74 | 0.006 | 2 | – | 12 | 4.7 | 100 | –
N[C@H]1CN(c2ccc(C(F)(F)F)cn2)CC[C@@H]1c1cc(F)c(F)cc1F | – | – | 28 | – | – | – | – | – | – | –
N[C@H]1CN(c2ccc3ccccc3n2)CC[C@@H]1c1cc(F)c(F)cc1F | 13 | 10 | 21 | 0.054 | – | – | – | – | – | –
N[C@H]1CN(c2cnc3ccccc3n2)CC[C@@H]1c1cc(F)c(F)cc1F | – | – | 27 | – | – | – | – | – | – | –
N[C@H]1CN(c2ccc3nc(C(F)(F)F)cn3n2)CC[C@@H]1c1cc(F)c(F)cc1F | 75 | 49 | 64 | 0.022 | – | – | – | – | – | –
Cn1c(C2CC2)nc2ccc(N3CC[C@H](c4cc(F)c(F)cc4F)[C@@H](N)C3)nc21 | 57 | > 100 | 41 | 0.002 | – | – | – | – | – | –
CCc1nnc2ccc(N3CC[C@H](c4cc(F)c(F)cc4F)[C@@H](N)C3)nn12 | – | – | 90 | – | – | – | – | – | – | –
N[C@H]1CN(c2ccccc2)CC[C@@H]1c1cc(F)c(F)cc1F | 39 | 33 | 5.5 | 0.21 | – | – | – | – | – | –
N[C@H]1CN(c2ccncc2)CC[C@@H]1c1cc(F)c(F)cc1F | 35 | 43 | 46 | 0.125 | – | – | – | – | – | –
Cn1nc2ccc(N3CC[C@H](c4cc(F)c(F)cc4F)[C@@H](N)C3)nn2c1=O | – | – | 57 | – | – | – | – | – | – | –
N[C@H]1CN(c2ncccn2)CC[C@@H]1c1cc(F)c(F)cc1F | 58 | 33 | 54 | 0.09 | – | – | – | – | – | –
